One assay deals with EC (BAEC). Put plainly: Uptake of FITC-peptides by fluorescence microscopy. As to conditions: 100 μg/ml, 30 min and 60 min. Type of assay: cell-based, bovine. As for the experimental part:
(§1) The cells examined were grown in 6-well plates on cover slips to reach near confluence. At the time of examination, the cover slips were inverted and put on a microscope slide supported by 2 thin spacers so that a thin gap (˜2 mm) was left between the cells on the coverslip and the slide. This was filled with culture medium. […] At different time points, medium was replaced with fresh medium and the fluorescence was viewed and photographed, using an Olympus fluorescent microscope system.
(§2) Accumulation of the FITC-peptide in the cytoplasm and around the nucleus was clearly observed. […] After a longer exposure of more than 1 hour or with fixed cells, accumulation of the FITC-peptide in the cytoplasm and around the nucleus was clearly observed (data not shown). In most cases, the fluorescence became concentrated in discrete cytoplasmic vesicles.

In a further assay the test system is human fibroblasts (HF). Put plainly: Uptake of FITC-peptides by fluorescence microscopy. Type of assay: cell-based. Set-up: binding and internalization of dissolved FITC-peptide, fluorescent microscopy: dose or concentration left out as unconfirmed. As for the experimental part:
as §1, §2

For the next assay, the system named is EC cells (BAEC). Nature of the assay: FACS analysis of binding of FITC-labeled peptides. Format: cell-based, bovine. As to conditions: 10 μg/ml or 100 μg/ml, medium with 0.1% albumin. As to the method: EC and HF cell monolayers were washed and then incubated with trypsin-versene. Cells were then washed with growth medium and resuspended in medium with 0.1% albumin. FITC-labeled peptide-Cβ (SEQ ID NO:1) was incubated with 5×10^5 EC cells (10 μg/ml or 100 μg/ml) or with 2.5×10^5 HF cells (100 μg/ml) in medium with 0.1% albumin. FITC-labeled peptide-CαE (SEQ ID NO:3) and Cα (SEQ ID NO:4) (10 μg/ml) was incubated with 5×10^5 EC cells in medium with 0.1% albumin. Cells were then washed with PBS and 1% albumin. Cells were resuspended in PBS and 1% albumin and then filtered through a mesh for FACS analysis, in which the FITC tluorescence was measured for each cell.
The control is without FITC-labeled peptide (background fluorescence).
In competition experiments, cells were incubated with various concentrations of unlabeled Cβ (SEQ ID NO:1) for 15 mins, an aliquot of Cβ^FITC (4 mM) was added and the sample was subjected to FACS analysis. […] The Cβ^FITC (SEQ ID NO:1) uptake experiments best fitted a linear-quadratic curve-fit.
For orientation: A flow cytometer gives signals particle by particle.

Another assay relates to human fibroblasts. To be noted: isolated constituent chains of fibrinogen; Gray et al. 1993; cited from earlier work.

Consider two molecules from patent US20070009571A1, “Novel haptotactic peptides” (Hadasit Medical Research Services & Development Ltd., priority 1998, published 2007).

No end group written: not given here.

With “FITC-CαE: FITC-labeled peptide CαE (SEQ ID NO:3) (RGADYSLRAVRMKIRPLVTQ; not fully specified (N-terminus); also: FITC label, position not given here)”, the “binding and internalization of dissolved FITC-peptide, fluorescent microscopy” value in the assay on EC (BAEC) is “binding and internalization”; in the assay with human fibroblasts (HF) (HF, 30 min and 60 min) it was “binding and internalization”. The “uptake of FITC-peptide by fluoro-microscopy” value in the assay with human fibroblasts (HF) (10 μM, human fibroblasts) is “uptake”. For the same molecule, the “binding/uptake of FITC-labeled peptide by FACS, in words” value in the assay on EC cells (BAEC) is “taken up by cells”.

B1: γ chain: isolated γ chain of fibrinogen (protein, UniProt P02679 27-453, looked up)
Fibrinogen gamma chain: YVATRDNCCILDERFGSYCPTTCGIADFLSTYQTKVDKDLQSLEDILHQVENKTSEVKQLIKAIQLTYNPDESSKPNMIDAATLKSRKMLEEIMKYEASILTHDSSIRYLQEIYNSNNQKIVNLKEKVAQLEAQCQEPCKDTVQIHDITGKDCQDIANKGAKQSGLYFIKPLKANQQFLVYCEIDGSGNGWTVFQKRLDGSVDFKKNWIQYKEGFGHLSPTGTTEFWLGNEKIHLISTQSAIPYALRVELEDWNGRTSTADYAMFKVGPEADKYRLTYAYFAGGDAGDAFDGFDFGDDPSDKFFTSHNGMQFSTWDNDNDKFEGNCAEQDGSGWWMNKCHAGHLNGVYYQGGTYSKASTPNGYDNGIIWATWKTRWYSMKKTTMKIIPFNRLTIGEGQQHHLGGAKQVRPEHPAETEYDSLYPEDDL
modifications: Fibrinogen gamma chain
notes: isolated γ chain of fibrinogen
On to B1, for which the “stimulation of fibroblast proliferation above controls” value with human fibroblasts was “no effect”.
